Data set [1] deals with Plasma. Nature of the data set: Drug metabolism in beagle dog plasma assessed as ertugliflozin-3-O-beta-glucuronide level at 10 mg/kg, po. The format is ADME, organism-based, Canis lupus familiaris. Further details: dose 10 mg/kg, route oral. Particulars: in vivo.
The subject of data set [2] is Plasma. Nature of the data set: Drug metabolism in Sprague-Dawley rat plasma assessed as ertugliflozin-4-O-beta-glucuronide level at 25 mg/kg, po. Format: ADME, organism-based. The settings on record: in vivo. Further details: dose 25 mg/kg, route oral.
Data set [3] can be described thus: Drug recovery in beagle dog feces assessed as ertugliflozin-4-O-beta-glucuronide level at 10 mg/kg, po. The format is ADME, organism-based, Canis lupus familiaris. Further details: dose 10 mg/kg, route oral. The settings on record: in vivo.
The test system of data set [4] is Liver microsome. Kind of data set: Metabolic stability in human liver microsomes assessed as retention time at 10 uM by HPLC analysis. The settings on record: in vitro.
Data set [5] relates to Plasma. Kind of data set: Drug metabolism in Sprague-Dawley rat plasma assessed as ertugliflozin-3-O-beta-glucuronide level at 25 mg/kg, po. Format: ADME, organism-based. On the set-up: dose 25 mg/kg, route oral. Particulars: in vivo.
The test system of data set [6] is Plasma. Nature of the data set: Drug metabolism in beagle dog plasma assessed as ertugliflozin-4-O-beta-glucuronide level at 10 mg/kg, po. The format is ADME, organism-based, Canis lupus familiaris. Further details: dose 10 mg/kg, route oral. The settings on record: in vivo.
Data set [7] concerns Plasma. Nature of the data set: Drug metabolism in healthy human plasma treated with [14C]-ertugliflozin at 25 mg, po by HPLC-radiocardiogram analysis. The format is ADME, organism-based. Particulars: in vivo.
The nature of data set [8]: Drug recovery in beagle dog feces treated with [14C]-ertugliflozin at 10 mg/kg, po. The format is ADME, organism-based, Canis lupus familiaris. The settings on record: in vivo. On the set-up: dose 10 mg/kg, route oral.
In data set [9] the test system is Homo sapiens. Nature of the data set: Total drug excretion in healthy human treated with [14C]-ertugliflozin at 25 mg, po by HPLC-radiocardiogram analysis. Format: ADME, organism-based. Particulars: in vivo.
Data set [10] in a line: Drug excretion in healthy human urine treated with [14C]-ertugliflozin at 25 mg, po by HPLC-radiocardiogram analysis. Particulars: in vivo. Format: ADME, organism-based.
Data set [11] is described as follows: Drug excretion in healthy human feces treated with [14C]-ertugliflozin at 25 mg, po by HPLC-radiocardiogram analysis. The format is ADME, organism-based. The settings on record: in vivo.
A short description of data set [12]: Drug recovery in Sprague-Dawley rat feces treated with [14C]-ertugliflozin at 25 mg/kg, po. The settings on record: in vivo. On the set-up: dose 25 mg/kg, route oral. Format: ADME, organism-based.
In data set [13] the test system is Liver microsome. Kind of data set: Metabolic stability in human liver microsomes assessed as retention time treated with 10 µM ertugliflozin by HPLC analysis.
In data set [14] the test system is Plasma. Kind of data set: Drug level in Sprague-Dawley rat plasma treated with [14C]-ertugliflozin at 25 mg/kg, po. The format is ADME, organism-based. On the set-up: dose 25 mg/kg, route oral. Particulars: in vivo.
The subject of data set [15] is Plasma. Kind of data set: Drug level in beagle dog plasma treated with [14C]-ertugliflozin at 10 mg/kg, po. The format is ADME, organism-based, Canis lupus familiaris. Further details: dose 10 mg/kg, route oral. Particulars: in vivo.
Data set [16] is described as follows: Drug level in bile duct-cannulated rat bile treated with [14C]-ertugliflozin at 25 mg/kg, po. The format is ADME, organism-based. Further details: dose 25 mg/kg, route oral. Particulars: in vivo.
The nature of data set [17]: Drug level in bile duct-cannulated dog bile treated with [14C]-ertugliflozin at 10 mg/kg, po. Further details: dose 10 mg/kg, route oral. The settings on record: in vivo. The format is ADME, organism-based, Canis lupus familiaris.
A short description of data set [18]: Oral bioavailability in beagle dog at 2 mg/kg. The format is ADME, organism-based, Canis lupus familiaris. The settings on record: in vivo.
Data set [19] can be described thus: Drug level in bile duct-cannulated dog bile at 10 mg/kg, po. Format: ADME, organism-based, Canis lupus familiaris. Further details: dose 10 mg/kg, route oral. The settings on record: read-out: Drug uptake.
A short description of data set [20]: Total drug excretion in healthy human at 25 mg, po by HPLC-radiocardiogram analysis. The format is ADME, organism-based. The settings on record: in vivo, read-out: Drug excretion.
Data set [21] in a line: Terminal half life in healthy human at 25 mg, po. Format: ADME, organism-based. The settings on record: in vivo, read-out: beta t1/2 (converted).
In data set [22] the test system is Homo sapiens. Kind of data set: AUC (0 to infinity) in healthy human at 25 mg, po. Further details: dose 25 mg, time infinity, route oral. Format: ADME, organism-based, Plasma. Particulars: in vivo.
Data set [23] can be described thus: Drug level in bile duct-cannulated rat bile at 25 mg/kg, po. On the set-up: dose 25 mg/kg, route oral. Format: ADME, organism-based. Particulars: read-out: Drug uptake.
Data set [24] is described as follows: AUC (0 to last) in healthy human at 25 mg, po. On the set-up: dose 25 mg, time 0 - last, route oral. The format is ADME, organism-based. The settings on record: plasma.
Data set [25] can be described thus: Tmax in healthy human at 25 mg, po. The format is ADME, organism-based. The settings on record: in vivo.
Data set [26] in a line: Cmax in healthy human at 25 mg, po. The format is ADME, organism-based. Further details: dose 25 mg, route oral. Particulars: in vivo.
A short description of data set [27]: Drug metabolism in healthy human plasma at 25 mg, po by HPLC-radiocardiogram analysis. The format is ADME, organism-based. The settings on record: read-out: Drug metabolism.
A short description of data set [28]: Terminal elimination half life in human at 0.5 to 300 mg, po. Format: ADME, organism-based. The settings on record: in vivo, read-out: beta t1/2 (converted).
Data set [29] is described as follows: Oral bioavailability in Sprague-Dawley rat at 2 mg/kg. The format is ADME, organism-based. Particulars: in vivo.

Broadly, the bioavailability is dose-corrected exposure relative to a reference, in per cent. High values mean good availability, low ones poor availability. Broadly, the AUC is concentration integrated over time. Higher therefore signals high exposure. What is called AUC(0-t) is the area under the concentration-time curve up to a stated or last time point. High values mean high exposure, low ones low exposure. The Tmax is the time from dosing to the highest level. By Cmax is commonly meant the peak of the concentration-time curve.

In the case of `CCO[14c]1[14cH][14cH][14c](Cc2cc([C@]34OC[C@](CO)(O3)[C@@H](O)[C@H](O)[C@H]4O)ccc2Cl)[14cH][14cH]1.O=C1CC[C@@H](C(=O)O)N1`, the Drug metabolism entry in the data set with Plasma [1], with Plasma [2], in the data set with Plasma [5] and in the data set on Plasma [6] was “metabolite_detected” in each case. The Drug recovery result in [3] is listed as “metabolite_not_detected”. The Retention_time in the data set with Liver microsome [4] came to 36.4 min.
In the data set on Plasma [7], `OC[C@@]12CO[C@@](c3ccc(Cl)c(Cc4ccc(O)cc4)c3)(O1)[C@H](O)[C@@H](O)[C@@H]2O` had a Drug metabolism of 1.3%. For the same molecule, the Drug recovery came out at 8.7% in data set [8] and 26.7% in [12]. Moreover, the Drug excretion with Homo sapiens [9] was found to be 1.4%; in [10] it was 0.4%; in data set [11] it was 1%. Moreover, the Retention_time in the data set with Liver microsome [13] stood at 27.2 min.
For `CCOc1ccc(Cc2cc([C@]34OC[C@](CO)(O3)[C@@H](O)[C@H](O)[C@H]4O[C@@H]3O[C@H](C(=O)O)[C@@H](O)[C@H](O)[C@H]3O)ccc2Cl)cc1`, the Drug metabolism entry is listed as “metabolite_detected” in the data set with Plasma [14], 12.2% in the data set on Plasma [7] and “metabolite_detected” in the data set on Plasma [15]. The Drug excretion (in the data set with Homo sapiens [9]; in [10]) was 5.7% in each case. Further, in the data set on Liver microsome [13], the Retention_time came out at 29.4 min.
Turning to `CCOc1ccc(Cc2cc([C@]34OC[C@](CO)(O3)[C@@H](O)[C@H](O[C@@H]3O[C@H](C(=O)O)[C@@H](O)[C@H](O)[C@H]3O)[C@H]4O)ccc2Cl)cc1`, the Drug metabolism entry is “metabolite_detected” in the data set on Plasma [14], 24.1% with Plasma [7] and “metabolite_detected” in the data set with Plasma [15]. In addition, the Drug uptake in [16] worked out at 16.5%; in [17], 39.2%. Moreover, the Drug excretion (in the data set with Homo sapiens [9]; in data set [10]) was 31.7% in each case. The Retention_time in the data set on Liver microsome [13] worked out at 34.3 min.
`CCOc1ccc(C(O)c2cc([C@]34OC[C@](CO)(O3)[C@@H](O)[C@H](O)[C@H]4O)ccc2Cl)cc1` (mixture of isomers): the Drug metabolism in the data set on Plasma [7] worked out at 2.5%. This molecule yielded a Drug recovery in data set [8] of 7.1%. The Drug excretion in the data set on Homo sapiens [9] is 2.4%; in data set [10], 0.7%; in [11], 1.7%. Moreover, the Retention_time with Liver microsome [13] is recorded as 27.9 min.
As to `CCOc1ccc(Cc2cc([C@]34OC[C@](CO)(O3)[C@@H](O)[C@H](O)[C@H]4O)ccc2Cl)cc1` [ERTUGLIFLOZIN], the bioavailability in [18] came to 94%; in data set [29] it was 69%. In addition, the dose excreted in [19] was 9.6%; in [20] it was 35.3%; in data set [23], 2.4%. Moreover, the half-life in data set [21] is 16.9 h; in data set [28], 11 h. Further, the AUC in the data set with Homo sapiens [22] amounted to 2800 ng·h/mL. Besides, the Retention_time in the data set on Liver microsome [4] turned out to be 36.4 min. In [24], this molecule displayed an AUC(0-t) of 2790 ng·h/mL. For the same molecule, the Tmax in data set [25] was 1 h. For the same molecule, the Cmax in data set [26] was 490 ng/mL. Besides, the metabolised in data set [27] was found to be 49.9%.

Values taken from ChEMBL document CHEMBL3526027, “Pharmacokinetics, metabolism, and excretion of the antidiabetic agent ertugliflozin (PF-04971729) in healthy male subjects” (Drug Metab Dispos, 2013).
